In patent US7595330B2, “Benzimidazole thiophene compounds” (SmithKline Beecham Corporation, priority 2005, dated 2009):
Where two headings read alike, the source gives them in different places.

Experiments:
[1] = target: T1, PLK1 kinase domain (Homo sapiens, UniProt P53350); test: Assay for inhibition of PLK1 (SPA, 33P-ATP, biotinylated peptide substrate); format: biochemical; conditions: 1 μM ATP, 2 nM PLK1 kinase domain; read-out: PLK1 pIC50 (converted)
T1 construct: made in house; host or cells: baculovirus infected T. ni cells
Experimental: I. Assay for Inhibition of PLK1
All procedures were performed at 4° C. Cells were lysed in 50 mM HEPES, 200 mM NaCl, 50 mM imidazole, 5% glycerol; pH 7.5. The homogenate was centrifuged at 14K rpm in a SLA-1500 rotor for 1 h and the supernatant filtered through a 1.2 micron filter. The supernatant was loaded onto a Nickel chelating Sepharose (Amersham Pharmacia) column and washed with lysis buffer. Protein was eluted using 20%, 30% and 100% buffer B steps where buffer B is 50 mM HEPES, 200 mM NaCl, 300 mM imidazole, 5% glycerol; pH 7.5. Fractions containing PLK were determined by SDS-PAGE. Fractions containing PLK were diluted five-fold with 50 mM HEPES, 1 mM DTT, 5% glycerol; pH 7.5, then loaded on an SP Sepharose (Amersham Pharmacia) column. After washing the column with 50 mM HEPES, 1 mM DTT, 5% glycerol; pH 7.5, PLK was step eluted with 50 mM HEPES, 1 mM DTT, 500 mM NaCl; 5% glycerol; pH 7.5. PLK was concentrated using a 10 kDa molecular weight cutoff membrane and then loaded onto a Superdex 200 gel filtration (Amersham Pharmacia) column equilibrated in 25 mM HEPES, 1 mM DTT, 500 mM NaCl, 5% glycerol; pH 7.5. Fractions containing PLK were determined by SDS-PAGE. PLK was pooled, aliquoted and stored at −80° C. Samples were quality controlled using mass spectrometry, N-terminal sequencing and amino acid analysis.
B. Enzyme activity +/− inhibitors was determined as follows: All measurements were obtained under conditions where signal production increased linearly with time and enzyme. Test compounds were added to white 384-well assay plates (0.1 μL for 10 μL and some 20 μL assays, 1 μL for some 20 μL assays) at variable known concentrations in 100% DMSO. DMSO (1-5% final, as appropriate) and EDTA (65 mM in reaction) were used as controls.
Reaction Mix (10 or 20 μL) was quickly added to each well immediately following addition of enzyme via automated liquid handlers and incubated 1-1.5 h at 22° C. The 20 μL enzymatic reactions were stopped with 50 μL of stop mix (50 mM EDTA, 4.0 mg/ml Streptavidin SPA beads in Standard Dulbecco's PBS (without Mg^2+ and Ca^2+), 50 μM ATP) per well. The 10 μL reactions were stopped with 10 μL of stop mix (50 mM EDTA, 3.0 mg/mL Streptavidin-coupled SPA Imaging Beads (“LeadSeeker”) in Standard Dulbecco's PBS (without Mg^2+ and Ca^2+), 50 μM ATP) per well. Plates were sealed with clear plastic seals, spun at 500×g for 1 min or settled overnight, and counted in Packard TopCount for 30 seconds/well (regular SPA) or imaged using a Viewlux imager (LeadSeeker SPA). Signal above background (EDTA controls) was converted to percent inhibition relative to that obtained in control (DMSO-only) wells.

[2] = tested on: HCT116; test: Methylene blue growth inhibition assay, HCT116; format: cell-based; conditions: Homo sapiens
Experimental: (§1) II. Methylene Blue Growth Inhibition Assay—Inhibition of Cell Proliferation by PLK1 Inhibitors
(§2) Generally, exponentially growing cell lines of different tumor origins, cultured in appropriate media containing 10% fetal bovine serum at 37° C. in a 5% CO2 incubator were plated at low density (less than 2000 cells/well) in 96-well plates. […]. Seventy two hours post-treatment, cell numbers were determined using 100 μl per well of methylene blue (Sigma M9140) (0.5% in 50:50 Ethanol:water). Stain was incubated at room temperature for 30 minutes before plates were rinsed and dye solubilized in 1% N-lauroyl sarcosine, sodium salt, (Sigma L5125, in PBS) (further details of a methylene blue assay are described below). Plates were read on a microplate reader, measuring the OD at 620 nm.
(§3) . The data are shown in Table 1 below and represent a compilation of several different experiments, each performed using the general parameters outlined above, although minor variations may have been employed in some instances.
(§4) In one assay, normal human foreskin fibroblasts (HFF), human colon (HCT116, RKO), lung (H460, A549) and breast (MCF7) tumor cell lines were cultured in high glucose DMEM (Life Technologies) containing 10% fetal bovine serum (FBS) at 37° C. in a humidified 5% CO2, 95% air incubator. Cells were harvested using trypsin/EDTA, counted using a haemocytometer, and plated in 100 μL of culture media per well, at the following densities, in a 96-well tissue culture plate (Falcon 3075): HFF 5,000 cells/well, HCT116 3,000 cells/well, RKO 2,500 cells/well, H460 2,500 cells/well, A549 5,000 cells/well, MCF7 4,000 cells/well. The next day, compounds were diluted in low glucose DMEM containing 100 μg/mL gentamicin, at twice the final required concentration, from 10 mM stock solutions in DMSO. 100 μL/well of these dilutions were added to the 100 μL of media currently in the assay plates. Medium containing 0.6% DMSO was added to control wells. The final concentration of DMSO in all wells was 0.3%. Cells were incubated at 37° C., 5% CO2 for 72 h. Medium was removed by aspiration. Cell biomass was estimated by staining cells with 80 μL per well methylene blue (Sigma M9140, 0.5% in 50:50 ethanol:water), and incubation at room temperature for 30-60 min. Stain was removed by aspiration and the plates rinsed by immersion in water, then air-dried. To release stain from the cells, 100 μL of solubilization solution was added (1% N-lauroyl sarcosine, Sodium salt, Sigma L5125, in PBS), and plates were shaken gently for about 30 min. Optical density at 620 nm was measured on a microplate reader. Percent inhibition of cell growth was calculated relative to vehicle treated control wells. […].

[3] = tested on: H460; test: Methylene blue growth inhibition assay, H460; format: cell-based; conditions: Homo sapiens
Experimental: as §1, §2, §3, §4

[4] = tested on: MCF7; test: Methylene blue growth inhibition assay, MCF7; format: cell-based; conditions: Homo sapiens
Experimental: as §1, §2, §3, §4

[5] = tested on: A549; test: Methylene blue growth inhibition assay, A549; format: cell-based; conditions: Homo sapiens
Experimental: as §1, §2, §3, §4

[6] = tested on: RKO; test: Methylene blue growth inhibition assay, RKO; format: cell-based; conditions: Homo sapiens, 72 h
Experimental: as §1, §2, §3, §4

[7] = tested on: normal human foreskin fibroblasts (HFF); test: Methylene blue growth inhibition assay, HFF; format: cell-based; conditions: Fibroblast, 72 h
Experimental: as §1, §2, §3, §4

[8] = tested on: human plasma proteins; test: Protein binding to human plasma proteins using equilibrium dialysis; format: in vitro ADME; conditions: pH 7.4, equilibrium dialysis 6 h, 37° C.
Experimental: III. Determination of Protein Binding to Human Plasma Proteins Using Equilibrium Dialysis
96 Well Plate (High Throughput Dialysis): Stock solutions of compounds were spiked into human plasma at a target concentration of 2000 ng/mL. The mixture was inverted gently several times to insure homogeneity and triplicate 50 μL aliquots were collected to verify initial concentrations. Following assembly of dialysis plate (HTDialysis membrane strips, molecular weight cut off limit of 12,000-14,000 daltons), spiked plasma (150 μL) was placed in the donor compartment of the well and Phosphate Buffered Saline pH 7.4 (150 μL) in the receiver compartment. Eight wells were set up per compound and plasma type. Plate was placed in a 37° C. incubator on a plate shaker. Following the 6 h incubation period, the plate was removed. Single 50 μL aliquots from each donor and receiver compartment (per well) were analyzed. Sample analysis was by LC/MS/MS (results reported as Drug Peak Area/Internal Standard Peak Area ratios). Protein binding assay can also be performed using dialysis cells instead of HT Dialysis 96 well plates. In Table 1, % Protein Binding, +=>98%; ++=95-98%: +++=<95%.

[9] = High throughput solubility assay; format: physicochemical; conditions: aqueous buffer, pH 7.4, 0.05M phosphate buffer
Experimental: IV. High Throughput Solubility Assay
Two samples are prepared for each compound. One (the standard sample) contains the compound at a fixed concentration of 20 μM in an aqueous/organic mixed solvent cocktail. The other (the test sample) contains the compound at a maximum concentration of 200 μM in pH 7.4, 0.05M phosphate buffer and shaking for 24 h. The test sample is filtered by 0.45μ filter and then spun for 10 min to remove any undissolved solid. HPLC analyses are preformed on these samples. The peak areas are used for computing solubility.

[10] = tested on: HCT116; test: Cell-Titer-Glo inhibition of cell proliferation, HCT116; format: cell-based; conditions: Homo sapiens, HCT-116, CellTiter-Glo, 72 h
Experimental: (§5) V. Cell-Titer-Glo—Inhibition of Cell Proliferation by PLK1 Inhibitors
(§6) Exponentially growing cell lines of different tumor origins, cultured in appropriate media containing 10% fetal bovine serum at 37° C. in a 5% CO2 incubator were plated at low density (less than 2000 cells/well) in 96-well plates. Twenty four hours post-plating, cells were treated with different concentrations of test compounds ranging from 10 uM to 0.04 nM. Several wells were left untreated as a control. Seventy two hours post-treatment, cell numbers were determined using 50-100 ul per well of CellTiter-Glo (Promega #G7573). Plates were incubated at room temperature for 15 minutes and the chemiluminescent signal was read on the Victor V or Envison 2100 reader.
(§7) The Cell-Titer Glo data are shown in Table 2 below and represent a compilation of several different experiments, each performed using the general parameters outlined above, although minor variations may have been employed in some instances.

[11] = tested on: A549-L; test: Cell-Titer-Glo inhibition of cell proliferation, A549-L; format: cell-based; conditions: CellTiter-Glo, 72 h
Experimental: as §5, §6, §7

[12] = tested on: COLO205; test: Cell-Titer-Glo inhibition of cell proliferation, COLO205; format: cell-based; conditions: Homo sapiens, COLO 205, CellTiter-Glo, 72 h
Experimental: as §5, §6, §7

[13] = tested on: HT29; test: Cell-Titer-Glo inhibition of cell proliferation, HT29; format: cell-based; conditions: Homo sapiens, HT-29, CellTiter-Glo, 72 h
Experimental: as §5, §6, §7

[14] = tested on: MX-1; test: Cell-Titer-Glo inhibition of cell proliferation, MX-1; format: cell-based; conditions: Homo sapiens, MX1, CellTiter-Glo, 72 h
Experimental: as §5, §6, §7

[15] = tested on: SKOV-3; test: Cell-Titer-Glo inhibition of cell proliferation, SKOV-3; format: cell-based; conditions: Homo sapiens, SK-OV-3, CellTiter-Glo, 72 h
Experimental: as §5, §6, §7

[16] = tested on: H1299; test: Cell-Titer-Glo inhibition of cell proliferation, H1299; format: cell-based; conditions: Homo sapiens, NCI-H1299, CellTiter-Glo, 72 h
Experimental: as §5, §6, §7

[17] = tested on: MCF7; test: Cell-Titer-Glo inhibition of cell proliferation, MCF7; format: cell-based; conditions: Homo sapiens, CellTiter-Glo, 72 h
Experimental: as §5, §6, §7

[18] = tested on: MV522; test: Cell-Titer-Glo inhibition of cell proliferation, MV522; format: cell-based; conditions: CellTiter-Glo, 72 h
Experimental: as §5, §6, §7

[19] = tested on: MDA-MB-468; test: Cell-Titer-Glo inhibition of cell proliferation, MDA-MB-468; format: cell-based; conditions: Homo sapiens, CellTiter-Glo, 72 h
Experimental: as §5, §6, §7

[20] = HCT-116, methylene blue, 72 h, HCT116, read-out: HCT116 IC50
[21] = NCI-H460, methylene blue, 72 h, H460, read-out: H460 IC50
[22] = methylene blue, 72 h, MCF7, read-out: MCF7 IC50
[23] = methylene blue, 72 h, A549, read-out: A549 IC50
[24] = methylene blue, read-out: RKO IC50
[25] = methylene blue, HFF normal fibroblasts, read-out: HFF IC50

T1 sequence (P53350 21-346): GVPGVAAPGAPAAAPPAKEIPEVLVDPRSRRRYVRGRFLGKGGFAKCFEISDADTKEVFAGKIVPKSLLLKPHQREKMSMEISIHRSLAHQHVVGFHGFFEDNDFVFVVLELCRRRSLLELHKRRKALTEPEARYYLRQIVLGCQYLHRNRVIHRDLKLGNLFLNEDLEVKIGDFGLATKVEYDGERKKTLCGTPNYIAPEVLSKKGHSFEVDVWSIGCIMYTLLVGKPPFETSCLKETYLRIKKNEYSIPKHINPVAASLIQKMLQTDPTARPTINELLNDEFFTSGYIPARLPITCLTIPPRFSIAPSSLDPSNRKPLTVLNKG

SMILES | IC50 [1] | IC50 [2, 20] | IC50 [3, 21] | IC50 [4, 22] | IC50 [5, 23] | IC50 [6, 24] | IC50 [7, 25] | fraction unbound at 6 h, 2000 ng/mL [8] | solubility at 24 h [9] | also measured
C[C@@H](Oc1cc(-n2cnc3ccc(CS(C)(=O)=O)cc32)sc1C(N)=O)c1ccccc1Cl [Example 2, 3-{[(1R)-1-(2-Chlorophenyl)ethyl]oxy}-5-{6-[(methylsulfonyl)methyl]-1H-benzimidazol-1-yl}-2-thiophenecarboxamide] | < 10 nM | < 0.1 µM | < 0.1 µM | < 0.1 µM | < 0.1 µM | < 0.1 µM | 0.1 to 1 µM | 0.02 to 0.05 | 30 to 100 µM | –
C[C@@H](Oc1cc(-n2cnc3ccc(OC4CCNCC4)cc32)sc1C(N)=O)c1ccccc1C(F)(F)F [Example 5, 5-[6-(4-Piperidinyloxy)-1H-benzimidazol-1-yl]-3-({(1R)-1-[2-(trifluoromethyl)phenyl]ethyl}oxy)-2-thiophenecarboxamide] | – | – | – | – | – | – | – | 0.02 to 0.05 | > 100 µM | IC50 ([2]; HCT-116, 72 h, read-out: HCT116 IC50 (μM)): < 0.1 µM; IC50 ([3]; NCI-H460, 72 h, read-out: H460 IC50 (μM)): < 0.1 µM; IC50 ([4]; MCF7, 72 h, read-out: MCF7 IC50 (μM)): < 0.1 µM; IC50 ([5]; A549, 72 h, read-out: A549 IC50 (μM)): < 0.1 µM; IC50 ([6]; read-out: RKO IC50 (μM)): < 0.1 µM; IC50 ([7]; read-out: HFF IC50 (μM)): 0.1 to 1 µM; IC50 [10]: < 500 nM; IC50 [11]: < 500 nM; IC50 [12]: < 500 nM; IC50 [13]: < 500 nM; IC50 [14]: < 500 nM; IC50 [15]: < 500 nM; IC50 [16]: < 500 nM; IC50 [17]: < 500 nM; IC50 [18]: < 500 nM; IC50 [19]: < 500 nM
COc1cc2ncn(-c3cc(OC(C)c4ccccc4C(F)(F)F)c(C(N)=O)s3)c2cc1OC (stereo not drawn) [Com. Ex 127, reference compound] | < 10 nM | 0.1 to 1 µM | < 0.1 µM | 0.1 to 1 µM | < 0.1 µM | < 0.1 µM | > 1 µM | < 0.02 | < 30 µM | –
